Read-outs that look alike come from different tables or passages of the source.
Assays:
[1] = test system: 23132/87; assay: alamarBlue cell viability (survival rate, IC50), 23132/87; format: cell-based; details: 23132/87 (gastric cancer)
Description: (§1) A p-value < 0.05 was considered statistically significant.

[2] = test system: SNU-719; assay: alamarBlue cell viability (survival rate, IC50), SNU-719; format: cell-based
Description: as §1

[3] = test system: SNU-81; assay: alamarBlue cell viability (survival rate, IC50), SNU-81; format: cell-based
Description: as §1

[4] = test system: SNU-C5; assay: alamarBlue cell viability (survival rate, IC50), SNU-C5; format: cell-based
Description: as §1

[5] = test system: SW48; assay: alamarBlue cell viability (survival rate, IC50), SW48; format: cell-based; details: SW48 (colorectal cancer)
Description: as §1

[6] = test system: SNU201; assay: alamarBlue cell viability (survival rate), SNU201; format: cell-based; details: SNU201 (glioblastoma), compound 10 µM, 48 hours
Description: as §1

[7] = test system: SNU466; assay: alamarBlue cell viability (survival rate), SNU466; format: cell-based; details: SNU466 (glioblastoma), compound 10 µM, 48 hours
Description: as §1

[8] = test system: HepG2; assay: alamarBlue cell viability (survival rate), HepG2; format: cell-based; details: HepG2 (liver cancer), compound 10 µM, 48 hours
Description: as §1

[9] = test system: MiaPaCa-2; assay: alamarBlue cell viability (survival rate), MiaPaCa-2; format: cell-based; details: MiaPaCa-2 (pancreatic cancer), compound 10 µM, 48 hours
Description: as §1

[10] = test system: 23132/87 cell line; assay: Cell cycle distribution (PI/RNase staining, flow cytometry), 23132/87; format: cell-based; details: 48 hours
Protocol: (§2) Cell cycle distribution was analyzed by DNA staining using FxCycle PI/RNase Staining Solution (Invitrogen, USA). The 23132/87 and SW48 cell lines was seeded at densities of 5 × 10^5 and 7 × 10^5cells/well, respectively, in 6-well plates. After 24 hours of culture, cells were starved overnight in serum-free medium. […] Cells were then harvested, fixed with 70% ethanol, and stained with PI/RNase solution. Samples were analyzed by flow cytometry (BD FACSVerse Cell Analyzer and FlowJo software, BD Biosciences, Franklin Lakes, NJ, USA) based on 10,000 events.
(§3) Student's t-test was performed for statistical analysis between the 2 concentrations of the same compound.

[11] = test system: SW48 cell line; assay: Cell cycle distribution (PI/RNase staining, flow cytometry), SW48; format: cell-based
Protocol: as §2, §3

[12] = test system: 23132/87 cells; assay: Apoptosis, Annexin V-FITC/PI staining, flow cytometry, 23132/87; format: cell-based; details: for Apoptosis distribution (%), Q2: Annexin V-FITC+/PI+ (late apoptosis and cell death); for Apoptosis distribution (%), Q3: Annexin V-FITC+/PI- (early apoptosis); for Apoptosis distribution (%), Q4: Annexin V-FITC-/PI- (healthy population)
Protocol: 23132/87 and SW48 cells were seeded at densities of 5 × 10^5 and 7 × 10^5 cells/well in a 6-well plate and cultured for 24 hours. […] After treatment, cells were harvested and stained using the Annexin V-FITC Early Apoptosis Detection Kit (6592, Cell Signaling Technology, USA). Flow cytometry (BD FACSVerse Cell Analyzer and FlowJo software, BD Biosciences, USA) was applied to analyze the samples based on 10,000 events.
as §3

[13] = test system: caspase-3 and -7; assay: Caspase-3/7 activity assay (Caspase-Glo 3/7), 23132/87 cells; format: cell-based; details: for Caspase-3/7 activity: RLU relative to DMSO; for caspase-3/7 RLU increase over DMSO: 23132/87
Protocol: (§4) Apoptosis can be activated and progress through either the intrinsic or extrinsic pathway, but caspase-3, the executioner caspase, is involved in most cases. […] Since this enzyme activity is transient, analysis was performed at two time points: 6 hours and 12 hours post-treatment.
(§5) Specifically, the Caspase-3/7 activity assay was performed with slight modifications to the manufacturer's protocol (Promega, USA). Briefly, cells were seeded at a density of 5 × 10^3 cells/well in a 96-well plate, cultured for 24 hours, and then treated with the compound at an appropriate concentration for 6 or 12 hours. After treatment, Caspase-Glo 3/7 reagent was added in equal volumes to the treated samples. The plate was then shaken and incubated at room temperature for 2 hours. Enzyme activity was determined by measuring relative light units (RLU) using a Varioskan LUX Multimode Microplate Reader (Thermo Fisher Scientific, USA).

[14] = test system: caspase-3 and -7; assay: Caspase-3/7 activity assay (Caspase-Glo 3/7), SW48 cells; format: cell-based; details: for Caspase-3/7 activity: RLU relative to DMSO; for caspase-3/7 signal higher than DMSO: SW48
Protocol: as §4, §5

[15] = test system: SW48 cells; assay: Xenograft mouse model, tumor volume, SW48 (colorectal cancer); format: in vivo, BALB/c/nu/nu mice; details: 10 mg/kg intraperitoneal on alternate days, to day 27
Protocol: Tumor volume and body weight were measured twice weekly.

[16] = mouse, in vivo, ip, 10 mg/kg
Protocol: Female BALB/c/nu/nu mice (5 weeks old) were used in the in vivo model.
As shown in the schematic diagram of Figure 16a, 23132/87 and SW48 cells were injected subcutaneously into mice at densities of 5 × 10^6 cells/mouse and 3 × 10^6 cells/mouse, respectively. […] Tumor volume and body weight were measured twice weekly. On day 27, mice were sacrificed, and major organs (liver, spleen, kidney) and tumor tissue were collected and stored for further analysis. Tumor volume was calculated using the following formula: Volume (mm^3) = (Length) × (Width)^2 × 1/2.

[17] = test system: various cancer cell lines; assay: alamarBlue cell viability, statements across the cell line panel
Protocol: AGS, SW48, HepG2, and MiaPaCa-2 was purchased from ATCC (American Type Culture Collection, USA), SNU cell lines from the Korean Cell Line Bank (KCLB, Korea), and 23132/87 from the Leibniz Institute DSMZ - German Collection of Microorganisms and Cell Cultures GmbH (DSMZ, Germany). All cell lines were cultured in RPMI-1640 medium (HyClone, USA) supplemented with 10% FBS (Gibco, USA) and 1% penicillin-streptomycin (HyClone, USA) under conditions of 5% CO2, 37°C.
Cells were seeded at a density of 5 × 10^3cells/well in a 96-well plate for 24 hours, then treated with the compound at an appropriate concentration (10 µM) for 48 hours. After treatment, alamarBlue reagent was added at a volume ratio of 1/10 of the treatment volume and incubated for 4 hours in a 37°C cell incubator (protected from direct light). Cell viability was then determined by measuring absorbance values at 570 nm and 600 nm using a microplate reader. The anticancer effects of candidate compounds were evaluated by assessing the cell viability (%) of cells treated at specific concentrations and the half-maximal inhibitory concentration (IC50) of each natural product. Doxorubicin and oxaliplatin were used as positive controls for gastric and colorectal cancer, respectively.
Statistical analysis was performed using R software (version 4.2.2) (R Core Team). Differences between groups were assessed using student's t-test or 1-way ANOVA followed by post-hoc Tukey HSD test. A p-value < 0.05 was considered statistically significant.
Further, to measure the IC50 values against six cancer cell lines.

anticancer activity (comparison of IC50 values among compounds) ([17]; six cancer cell lines, 2.5-40 µM): strongest anticancer activity
Structure (SMILES): C=CCc1cc(OC)c(O[C@H](C)[C@H](c2ccc(O)c(OC)c2)c2ccc(O)c(C(=O)CCCCCCCCc3ccc(O)cc3)c2O)c(OC)c1 [Compound 3, Myricone C]
IC50 ([1]; 2.5-40 µM, positive control = doxorubicin): 2070 nM
Cancer cell line survival rate (%) ([1]; compound 10 µM, 48 hours): 1.77%
IC50 ([2]; SNU719 (gastric cancer), 2.5-40 µM, positive control = doxorubicin): 2930 nM
Cancer cell line survival rate (%) ([2]; SNU-719 (gastric cancer), compound 10 µM, 48 hours): 4.30%
IC50 ([3]; SNU81 (colorectal cancer), 2.5-40 µM, positive control = oxaliplatin, read-out: IC50): 9840 nM
IC50 ([3]; SNU81 cells, compound 2.5-40 µM, read-out: IC50 values): 9840 nM
Cancer cell line survival rate (%) ([3]; SNU-81 (colorectal cancer), compound 10 µM, 48 hours): 47.08%
Cancer cell line survival rate (%) ([4]; SNU-C5 (colorectal cancer), compound 10 µM, 48 hours): 2.11%
IC50 ([4]; SNUC5 (colorectal cancer), 2.5-40 µM, positive control = oxaliplatin, read-out: IC50): 2540 nM
IC50 ([4]; SNUC5 cells, compound 2.5-40 µM, read-out: IC50 values): 2540 nM
IC50 ([5]; Homo sapiens, 2.5-40 µM, positive control = oxaliplatin): 2550 nM
Cancer cell line survival rate (%) ([5]; compound 10 µM, 48 hours): 0.01%
Cancer cell line survival rate (%) [6]: 1.17%
Cancer cell line survival rate (%) [7]: 1.91%
Cancer cell line survival rate (%) [8]: 1.60%
Cancer cell line survival rate (%) [9]: 2.53%
Cell cycle distribution, G1 ([10]; 23132/87, 5 µM): 63.00%
Cell cycle distribution, G2/M ([10]; 23132/87, 5 µM): 6.79%
Cell cycle distribution, S ([10]; 23132/87, 5 µM): 21.23%
Cell cycle distribution, Sub G1 ([10]; 23132/87, 5 µM): 9.15%
Cell cycle distribution, G1 ([10]; 23132/87, 10 µM): 68.93%
Cell cycle distribution, G2/M ([10]; 23132/87, 10 µM): 6.19%
Cell cycle distribution, S ([10]; 23132/87, 10 µM): 14.40%
Cell cycle distribution, Sub G1 ([10]; 23132/87, 10 µM): 10.45%
G1 phase increase compared to DMSO ([10]; 23132/87, 10 µM): about 10%
G2/M phase decrease compared to DMSO ([10]; 23132/87, 10 µM): about 4%
Cell cycle distribution, G1 ([11]; SW48, 5 µM, 48 hours): 56.63%
Cell cycle distribution, G2/M ([11]; SW48, 5 µM, 48 hours): 8.91%
Cell cycle distribution, S ([11]; SW48, 5 µM, 48 hours): 23.00%
Cell cycle distribution, Sub G1 ([11]; SW48, 5 µM, 48 hours): 9.65%
Cell cycle distribution, G1 ([11]; SW48, 10 µM, 48 hours): 50.93%
Cell cycle distribution, G2/M ([11]; SW48, 10 µM, 48 hours): 6.13%
Cell cycle distribution, S ([11]; SW48, 10 µM, 48 hours): 19.30%
Cell cycle distribution, Sub G1 ([11]; SW48, 10 µM, 48 hours): 24.17%
sub-G1 proportion increase compared to the DMSO control ([11]; SW48, 10 µM, 48 hours): 7%
G2 phase ([11]; SW48, 5 µM): 8.91% ± 0.24%
sub-G1 phase ratio ([11]; SW48, 5 µM): 9.65% ± 1.02%
G2 phase ([11]; SW48, 10 µM): 6.13% ± 0.47%
sub-G1 phase ratio ([11]; SW48, 10 µM): 24.17% ± 0.98%
proportions of the G1, S, and G2/M phases ([11]; SW48, 10 µM, 48 hours, only G2/M decrease statistically significant): slightly reduced
Apoptosis distribution (%), Q2 ([12]; 23132/87, 5 µM, 20 hours): 9.35%
Apoptosis distribution (%), Q3 ([12]; 23132/87, 5 µM, 20 hours): 5.76%
Apoptosis distribution (%), Q4 ([12]; 23132/87, 5 µM, 20 hours): 81.57%
Apoptosis distribution (%), Q2 ([12]; 23132/87, 10 µM, 20 hours): 10.47%
Apoptosis distribution (%), Q3 ([12]; 23132/87, 10 µM, 20 hours): 10.97%
Apoptosis distribution (%), Q4 ([12]; 23132/87, 10 µM, 20 hours): 75.00%
Q3 population ([12]; 23132/87, 5 µM): 5.76% ± 0.35%
Apoptosis distribution (%), Q1 ([12]; 23132/87, 5 µM, 20 hours): 3.30%
Q3 ratio compared with DMSO control ([12]; 23132/87, 5 µM, 20 hours): significantly increased
Q3 population ([12]; 23132/87, 10 µM): 10.97% ± 0.12%
Q4 distribution reduction compared to the control group ([12]; 23132/87, 10 µM): 8.27%
Apoptosis distribution (%), Q1 ([12]; 23132/87, 10 µM, 20 hours): 3.59%
Q2 ratio increase compared with DMSO control ([12]; 23132/87, 10 µM, 20 hours): about 2%
Q3 ratio increase compared with DMSO control ([12]; 23132/87, 10 µM, 20 hours): ~6%
Q2 and Q3 with increasing concentrations ([12]; 23132/87, 5 to 10 µM): significantly increased
Caspase-3/7 activity ([13]; 23132/87, 5 µM, 6 h): 0.58 fold
Caspase-3/7 activity ([13]; 23132/87, 5 µM, 12 h): 1.74 fold
Caspase-3/7 activity ([13]; 23132/87, 10 µM, 6 h): 1.81 fold
Caspase-3/7 activity ([13]; 23132/87, 10 µM, 12 h): 1.20 fold
caspase-3/7 RLU increase over DMSO ([13]; 5 µM, 12 hours): 1.74 fold
caspase-3/7 RLU increase over DMSO ([13]; 10 µM, 6 hours): 1.81 fold
Caspase-3/7 activity ([14]; SW48, 5 µM, 6 h): 1.10 fold
Caspase-3/7 activity ([14]; SW48, 5 µM, 12 h): 2.37 fold
Caspase-3/7 activity ([14]; SW48, 10 µM, 6 h): 1.89 fold
Caspase-3/7 activity ([14]; SW48, 10 µM, 12 h): 2.02 fold
caspase-3/7 signal higher than DMSO ([14]; high concentration (10 µM), 6 hours): 2.37 fold
caspase-3/7 signal higher than DMSO ([14]; low concentration (5 µM), 12 hours): 1.89 fold
tumor growth [15]: suppressed compared to the control group
body weight and the weights of major organs (liver, spleen, kidneys) [16]: remained stable
anticancer activity ([17]; various cancer cell lines): high anticancer activity

Source: EP4790046A1, “NOVEL COMPOUND DERIVED FROM MYRISTICA FRAGRANS, AND ANTICANCER COMPOSITION COMPRISING SAME” (Korea Institute of Science and Technology, priority 2023, dated 2025)
